# From patent US20100075965A1, “PI3 KINASE INHIBITORS AND METHODS OF THEIR USE” (Novartis AG, priority 2006, published 2010)
# Target: PI3 K Alpha (Homo sapiens, UniProt P42336)
# Experiment: PI3 kinase phosphorylation assays (homogenous solution phase, one step solid phase, ATP depletion/KinaseGlo)
# Format: biochemical
# Conditions: ATP depletion assay; read-out: PI3 K Alpha IC50
# Procedure: Compounds to be tested are dissolved in DMSO and directly distributed into 384-well flashplates at 1.25 μL per well. To start the reaction, 20 μL of 6 nM PI3 kinase are added into each well followed by 20 μL of 400 nM ATP containing a trace of radiolabeled ATP and 900 nM 1-alpha-phosphatidylinositol (PI). The plates are briefly centrifuged to remove any air gap. The reaction is performed for 15 minutes and then stopped by the addition of 20 μL of 100 mM EDTA. The stopped reaction is incubated overnight at RT to allow the lipid substrate to bind by hydrophobic interaction to the surface of the flashplate. The liquid in the wells is then washed away, and the labeled substrate is detected with scintillation counting.
# This method is similar to Assay 1 except that the lipid substrate (1-alpha-phosphatidylinositol (PI)) is first dissolved in a coating buffer and incubated on flashplate at room temperature overnight to allow the lipid substrate to bind by hydrophobic interaction to the surface of the flashplate. Unbound substrate is then washed away. On the day of assay, 20 μL of 6 nM PI3 kinase are added into each well followed by 20 μL of 400 nM ATP containing trace of radiolabeled ATP. Compounds are added together with enzyme and ATP to the lipid-coated plates. The plates are briefly centrifuged to remove any air gap. The reaction is performed for two to three hours. The reaction is stopped by addition of 20 μL of 100 mM EDTA or by immediate plate washing. Phosphorylated lipid substrate is detected by scintillation counting.
# Compounds to be tested are dissolved in DMSO and directly distributed into a black 384-well plate at 1.25 μL per well. To start the reaction, 25 μL of 10 nM PI3 kinase and 5 μg/mL 1-alpha-phosphatidylinositol (PI) are added into each well followed by 25 μL of 2 μM ATP. The reaction is performed until approx 50% of the ATP is depleted, and then stopped by the addition of 25 μL of KinaseGlo solution. The stopped reaction is incubated for 5 minutes and the remaining ATP is then detected via luminescence.
# PI3 K Alpha, sequence (P42336 whole entry): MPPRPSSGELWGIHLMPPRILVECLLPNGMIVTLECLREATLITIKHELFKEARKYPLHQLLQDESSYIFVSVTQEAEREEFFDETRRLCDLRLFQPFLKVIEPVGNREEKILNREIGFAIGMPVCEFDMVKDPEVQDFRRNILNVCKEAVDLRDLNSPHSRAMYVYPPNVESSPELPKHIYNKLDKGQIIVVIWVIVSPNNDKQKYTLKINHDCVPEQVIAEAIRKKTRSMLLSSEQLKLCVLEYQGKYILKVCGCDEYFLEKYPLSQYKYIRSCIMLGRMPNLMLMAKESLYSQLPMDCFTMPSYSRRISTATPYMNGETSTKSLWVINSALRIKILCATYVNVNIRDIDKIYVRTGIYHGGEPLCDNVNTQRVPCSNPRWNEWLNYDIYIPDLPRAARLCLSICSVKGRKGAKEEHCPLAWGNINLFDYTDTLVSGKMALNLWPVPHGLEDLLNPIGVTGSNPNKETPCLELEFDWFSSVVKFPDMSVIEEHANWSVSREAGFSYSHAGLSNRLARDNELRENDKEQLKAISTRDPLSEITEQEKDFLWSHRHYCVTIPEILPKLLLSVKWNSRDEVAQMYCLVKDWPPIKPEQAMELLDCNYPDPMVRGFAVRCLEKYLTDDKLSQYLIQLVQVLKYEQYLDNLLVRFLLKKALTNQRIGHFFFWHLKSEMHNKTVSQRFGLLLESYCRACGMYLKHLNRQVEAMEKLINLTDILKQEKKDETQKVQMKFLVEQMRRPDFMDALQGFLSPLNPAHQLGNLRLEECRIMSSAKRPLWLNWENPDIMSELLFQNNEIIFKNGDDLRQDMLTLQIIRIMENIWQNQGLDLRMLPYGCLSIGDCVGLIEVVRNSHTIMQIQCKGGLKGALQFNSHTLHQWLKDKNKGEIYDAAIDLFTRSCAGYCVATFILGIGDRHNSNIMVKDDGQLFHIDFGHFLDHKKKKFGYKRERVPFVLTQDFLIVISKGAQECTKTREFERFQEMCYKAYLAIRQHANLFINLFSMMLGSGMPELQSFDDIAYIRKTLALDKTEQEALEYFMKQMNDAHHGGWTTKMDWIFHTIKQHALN
# PI3 K Alpha, sequence (P27986 whole entry partner): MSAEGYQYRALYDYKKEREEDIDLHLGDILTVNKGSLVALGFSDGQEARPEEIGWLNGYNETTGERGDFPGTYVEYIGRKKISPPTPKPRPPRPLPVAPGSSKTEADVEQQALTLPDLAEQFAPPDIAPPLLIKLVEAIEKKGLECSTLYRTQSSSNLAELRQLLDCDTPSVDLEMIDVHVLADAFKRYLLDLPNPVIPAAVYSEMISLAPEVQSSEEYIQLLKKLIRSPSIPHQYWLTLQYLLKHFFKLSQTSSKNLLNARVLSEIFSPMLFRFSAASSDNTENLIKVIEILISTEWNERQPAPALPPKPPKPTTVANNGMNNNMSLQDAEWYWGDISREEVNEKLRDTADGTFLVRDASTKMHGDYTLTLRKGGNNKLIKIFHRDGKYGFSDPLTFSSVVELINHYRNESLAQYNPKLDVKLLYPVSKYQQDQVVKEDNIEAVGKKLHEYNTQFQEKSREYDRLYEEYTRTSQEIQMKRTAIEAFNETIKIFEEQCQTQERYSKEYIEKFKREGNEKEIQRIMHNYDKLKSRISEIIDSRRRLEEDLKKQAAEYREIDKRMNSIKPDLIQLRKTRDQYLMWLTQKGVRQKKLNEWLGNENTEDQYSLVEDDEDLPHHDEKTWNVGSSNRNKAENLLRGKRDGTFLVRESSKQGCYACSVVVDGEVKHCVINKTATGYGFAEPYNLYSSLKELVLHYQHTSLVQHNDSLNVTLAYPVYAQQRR
row,IC50,SMILES
1,< 1000 nM,"CC(=O)Nc1nc2ccc(-c3ccc(NC4CCOCC4)nc3)cc2s1 [Example 2-17, N-{6-[6-(Tetrahydro-pyran-4-ylamino)-pyridin-3-yl]-benzothiazol-2-yl}-acetamide]"
2,< 1000 nM,"CC(=O)Nc1nc2ccc(-c3ccc(NC4CCNCC4)nc3)cc2s1 [Example 2-19, N-{6-[6-(Piperidin-4-ylamino)-pyridin-3-yl]-benzothiazol-2-yl}-acetamide]"
3,< 1000 nM,"Nc1ccc(-c2ccc3nc(NC(=O)OCCN4CCCCC4)sc3c2)cn1 [Example 2-20, [6-(6-Amino-pyridin-3-yl)-benzothiazol-2-yl]-carbamic acid 2-piperidin-1-yl-ethyl ester]"
4,< 1000 nM,"CC(=O)Nc1nc2ccc(-c3cnc(NC(C)=O)c(C(F)(F)F)c3)cc2s1 [Example 2-22, N-[6-(6-Acetylamino-5-trifluoromethyl-pyridin-3-yl)-bezothiazol-2-yl]-acetamide]"
5,< 10000 nM,"Nc1cccc(C(=O)Nc2nc3ccc(-c4cnc(N)c(C(F)(F)F)c4)cc3s2)n1 [Example 2-35, 6-amino-N-(6-(6-amino-5-(trifluoromethyl)pyridin-3-yl)benzo[d]thiazol-2-yl)picolinamide]"
6,< 1000 nM,"Nc1cc(C(=O)Nc2nc3ccc(-c4cnc(N)c(C(F)(F)F)c4)cc3s2)ccn1 [Example 2-36, 2-amino-N-(6-(6-amino-5-(trifluoromethyl)pyridin-3-yl)benzo[d]thiazol-2-yl)isonicotinamide]"

# Same assay, conditions: read-out: PI3K Alpha IC50
row,SMILES,IC50
1,"CC(=O)Nc1nc2ccc(-c3ccc(N)nc3)cn2c1Br [Example 14, N-[6-(6-Amino-pyridin-3-yl)-3-bromo-imidazo[1,2-a]pyridin-2-yl]-acetamide]",< 10000 nM
2,"CCN(CC)CCCc1c(NC(C)=O)nc2ccc(-c3cnc(N)c(C(F)(F)F)c3)cn12 [Example 17, N-[6-(6-Amino-5-trifluoromethyl-pyridin-3-yl)-3-(3-diethylamino-propyl)-imidazo[1,2-a]pyridin-2-yl]-acetamide]",< 10000 nM
3,"CC(=O)Nc1cn2cc(-c3cnc(N)c(C(F)(F)F)c3)cc(C)c2n1 [Example 34, N-(6-(6-amino-5-(trifluoromethyl)pyridin-3-yl)-8-methylimidazo[1,2-a]pyridin-2-yl)acetamide]",> 25000 nM
4,"CC(=O)Nc1cn2c(-c3cnc(N)c(C(F)(F)F)c3)c(-c3cnc(N)c(C(F)(F)F)c3)ccc2n1 [Example 35, N-(5,6-bis(6-amino-5-(trifluoromethyl)pyridin-3-yl)imidazo[1,2-a]pyridin-2-yl)acetamide]",> 25000 nM
5,"CC(=O)Nc1cn2cc(-c3cnc(N)nc3N)ccc2n1 [Example 48, N-(6-(2,4-diaminopyrimidin-5-yl)imidazo[1,2-a]pyridin-2-yl)acetamide]",< 10000 nM
6,"N#C/N=C(\N)NCCCC(=O)Nc1cn2nc(-c3cnc(N)c(C(F)(F)F)c3)ccc2n1 [Example 258, (E)-N-(6-(6-amino-5-(trifluoromethyl)pyridin-3-yl)imidazo[1,2-b]pyridazin-2-yl)-4-(2-cyanoguanidino) butanamide]",< 1000 nM
7,"CC(=O)Nc1cn2cc(-c3cnc(N)c(O[C@@H](C)C(F)(F)F)n3)cc(F)c2n1 [Example 259, (S)-N-(6-(5-amino-6-(1,1,1-trifluoropropan-2-yloxy)pyrazin-2-yl)-8-fluoroimidazo [1,2-a]pyridin-2-yl)acetamide]",< 1000 nM
8,"CC(=O)Nc1cn2nc(-c3cnc(N)c(-c4ccccc4Cl)c3)ccc2n1 [Example 260, N-(6-(6-amino-5-(2-chlorophenyl)pyridin-3-yl)imidazo[1,2-b]pyridazin-2-yl)acetamide]",< 1000 nM
9,"CC(=O)Nc1cn2cc(-c3cnc(N)c(Oc4cccc(F)c4)n3)cc(F)c2n1 [Example 261, N-(6-(5-amino-6-(3-fluorophenoxy)pyrazin-2-yl)-8-fluoroimidazo [1,2-a]pyridin-2-yl)acetamide]",< 1000 nM
10,"CC(=O)Nc1cn2cc(-c3cnc(N)c(OC(F)F)c3)ccc2n1 [Example 263, N-(6-(6-amino-5-(difluoromethoxy)pyridin-3-yl)imidazo[1,2-a]pyridin-2-yl)acetamide]",< 1000 nM
11,"CC(=O)Nc1cn2cc(-c3cnc(N)c(O[C@H](C)C(F)(F)F)n3)cc(F)c2n1 [Example 265, (R)-N-(6-(5-amino-6-(1,1,1-trifluoropropan-2-yloxy)pyrazin-2-yl)-8-fluoroimidazo [1,2-a]pyridin-2-yl)acetamide]",< 1000 nM
12,"CC(=O)Nc1cn2cc(-c3cnc(N)c(S(=O)(=O)N4CCC(Oc5ccc(F)cc5)CC4)c3)ccc2n1 [Example 267, N-(6-(6-amino-5-(4-(4-fluorophenoxy)piperidin-1-ylsulfonyl)pyridin-3-yl)imidazo[1,2-a]pyridin-2-yl)acetamide]",< 1000 nM

# The next lines start with the values.
row,IC50,SMILES
1,< 10000 nM,"CC(=O)Nc1nc2ccc(-c3cnc(N)c(C(F)(F)F)c3)cn2c1C(C)=O [Example 20, N-[3-Acetyl-6-(6-amino-5-trifluoromethyl-pyridin-3-yl)-imidazo[1,2-a]pyridin-2-yl]-acetamide]"
2,< 10000 nM,"CC(=O)Nc1cn2cc(-c3cnc(N)cc3C(F)(F)F)ccc2n1 [Example 22, N-[6-(6-Amino-4-trifluoromethyl-pyridin-3-yl)-imidazo[1,2-a]pyridin-2-yl]-acetamide]"
3,< 10000 nM,"CC(=O)N1CCCC[C@@H]1C(=O)Nc1cn2cc(-c3cnc(N)c(C(F)(F)F)c3)ccc2n1 [Example 47, (R)-1-acetyl-N-(6-(6-amino-5-(trifluoromethyl)pyridin-3-yl)imidazo[1,2-a]pyridin-2-yl)piperidine-2-carboxamide]"
4,< 10000 nM,"Nc1ncc(-c2ccc3nc(NC(=O)N4CCC[C@H]4C(=O)O)cn3c2)cc1C(F)(F)F [Example 49, (S)-1-(6-(6-amino-5-(trifluoromethyl)pyridin-3-yl)imidazo[1,2-a]pyridin-2-ylcarbamoyl) pyrrolidine-2-carboxylic acid]"
5,< 10000 nM,"Nc1ncc(-c2ccc3nc(NC(=O)c4ccccc4C(=O)O)cn3c2)cc1C(F)(F)F [Example 50, 2-(6-(6-amino-5-(trifluoromethyl)pyridin-3-yl)imidazo[1,2-a]pyridin-2-ylcarbamoyl) benzoic acid]"
6,< 1000 nM,"Nc1ncc(-c2ccc3nc(NC(=O)C4CCC(=O)N4)cn3c2)cc1C(F)(F)F (stereo not drawn) [Example 262, N-(6-(6-amino-5-(trifluoromethyl)pyridin-3-yl)imidazo[1,2-a]pyridin-2-yl)-5-oxopyrrolidine-2-carboxamide]"
7,< 1000 nM,"Nc1ncc(-c2ccc3nc(NC(=O)[C@H]4CCC(=O)O4)cn3c2)cc1C(F)(F)F [Example 264, (R)-N-(6-(6-amino-5-(trifluoromethyl)pyridin-3-yl)imidazo[1,2-a]pyridin-2-yl)-5-oxotetrahydro furan-2-carboxamide]"
8,< 1000 nM,"Nc1ncc(-c2ccc3nc(NC(=O)C4CCCC(=O)N4)cn3c2)cc1C(F)(F)F (stereo not drawn) [Example 266, N-(6-(6-amino-5-(trifluoromethyl)pyridin-3-yl)imidazo[1,2-a]pyridin-2-yl)-6-oxo-piperidine-2-carboxamide]"
9,< 1000 nM,Nc1ncc(-c2ccc3nc(NC(=O)[C@@H]4CCC(=O)O4)cn3c2)cc1C(F)(F)F [Example 268]
10,< 1000 nM,"Nc1ncc(-c2ccc3nc(NC(=O)c4cccc(-c5nn[nH]n5)c4)cn3c2)cc1C(F)(F)F [Example 269, N-(6-(6-amino-5-(trifluoromethyl)pyridin-3-yl)imidazo[1,2-a]pyridin-2-yl)-3-(2H-tetrazol-5-yl)benzamide]"
11,< 1000 nM,"Nc1ncc(-c2ccc3nc(NC(=O)C4CCC(=O)NC4)cn3c2)cc1C(F)(F)F (stereo not drawn) [Example 270, N-(6-(6-amino-5-(trifluoromethyl)pyridin-3-yl)imidazo[1,2-a]pyridin-2-yl)-6-oxopiperidine-3-carboxamide]"
12,< 1000 nM,"Nc1ncc(-c2ccc3nc(NC(=O)[C@@H](O)CCC(=O)O)cn3c2)cc1C(F)(F)F [Example 272, (S)-5-(6-(6-amino-5-(trifluoromethyl)pyridin-3-yl)imidazo[1,2-a]pyridin-2-ylamino)-4-hydroxy-5-oxopentanoic acid]"
13,< 1000 nM,"Nc1ncc(-c2ccc3nc(NC(=O)N4CCCC4Cc4ccccn4)cn3c2)cc1C(F)(F)F (stereo not drawn) [Example 273, N-(6-(6-amino-5-(trifluoromethyl)pyridin-3-yl)imidazo[1,2-a]pyridin-2-yl)-2-(pyridin-2-ylmethyl) pyrrolidine-1-carboxamide]"
14,< 1000 nM,"Nc1ncc(-c2ccc3nc(NC(=O)N4CCCC4c4ccco4)cn3c2)cc1C(F)(F)F (stereo not drawn) [Example 274, N-(6-(6-amino-5-(trifluoromethyl)pyridin-3-yl)imidazo[1,2-a]pyridin-2-yl)-2-(furan-2-yl)pyrrolidine-1-carboxamide]"
15,< 1000 nM,"Nc1ncc(-c2ccc3nc(NC(=O)N4CCCC4c4nccs4)cn3c2)cc1C(F)(F)F (stereo not drawn) [Example 275, N-(6-(6-amino-5-(trifluoromethyl)pyridin-3-yl)imidazo[1,2-a]pyridin-2-yl)-2-(thiazol-2-yl)pyrrolidine-1-carboxamide]"
